Among the test systems are A549 NSCLC; ACHN renal; COLO 205 colon; HCT-116 colon; LOX IMVI melanoma; NCI-H460 lung; OVCAR-8 ovarian; RXF 393 renal.
Test in all cases: NCI-60 cell line screen, 48 h

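All cell lines were grown in 96-well plates and treated with compound for 48 hours. GI50 marks 50% less growth. At the TGI there is no net growth.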

For the compound `COC(=O)c1nc(-c2ccccc2)oc1S(=O)(=O)Cc1ccccc1`, the GI50 with A549 NSCLC is 17.5 µM; in the assay with ACHN renal it was 1.77 µM; in the assay with COLO 205 colon, 1.84 µM; in the assay with HCT-116 colon, 2.58 µM; in the assay on LOX IMVI melanoma it was 2.88 µM; with NCI-H460 lung, 19.8 µM. Moreover, the GI50 with OVCAR-8 ovarian is 12.1 µM; in the assay on RXF 393 renal, 1.87 µM. Besides, the TGI worked out at 33.6 µM in the assay on A549 NSCLC; 3.15 µM in the assay on ACHN renal; 3.66 µM in the assay with COLO 205 colon; 6.23 µM with HCT-116 colon; 8.7 µM in the assay with LOX IMVI melanoma; 40 µM with NCI-H460 lung. In addition, the TGI worked out at 28.2 µM in the assay with OVCAR-8 ovarian and 3.5 µM in the assay with RXF 393 renal.
With `C(#Cc1ccccc1C#Cc1cccs1)c1cccs1`, the GI50 is 89.9 µM in the assay with A549 NSCLC; 78 µM with ACHN renal; 36.4 µM in the assay with COLO 205 colon; 21.8 µM in the assay with HCT-116 colon; 23.7 µM in the assay on LOX IMVI melanoma; 47.4 µM with NCI-H460 lung. In addition, the GI50 is above 100 µM with OVCAR-8 ovarian and 23.9 µM in the assay on RXF 393 renal. Also, the TGI is above 100 µM with A549 NSCLC; above 100 µM in the assay on ACHN renal; above 100 µM with COLO 205 colon; above 100 µM in the assay on HCT-116 colon; 53.8 µM in the assay on LOX IMVI melanoma; above 100 µM in the assay on NCI-H460 lung. For the same compound, the TGI with OVCAR-8 ovarian and in the assay on RXF 393 renal was above 100 µM each time.
Regarding `Nc1c(C(=O)c2cccc(-c3ccncc3)c2)cnn1-c1ccc(F)cc1F`, the GI50 in the assay on A549 NSCLC was 6.01 µM; in the assay with ACHN renal, 12 µM; in the assay on COLO 205 colon, 2.09 µM; in the assay on HCT-116 colon, 6.25 µM; in the assay on LOX IMVI melanoma, 14.3 µM; in the assay with NCI-H460 lung, 5.2 µM. Also, the GI50 in the assay with OVCAR-8 ovarian was 18.3 µM; in the assay on RXF 393 renal, 8.75 µM. Also, the TGI is above 25 µM in the assay on A549 NSCLC; above 25 µM with ACHN renal; above 21.4 µM in the assay on COLO 205 colon; above 25 µM in the assay on HCT-116 colon; above 25 µM in the assay on LOX IMVI melanoma; above 25 µM with NCI-H460 lung. Further, the TGI in the assay on OVCAR-8 ovarian and in the assay with RXF 393 renal was above 25 µM throughout.
Turning to `COc1ccc(-c2cc(=O)[nH]c3c(OC)c4ccccc4c(OC)c23)cc1`, the GI50 with A549 NSCLC was 0.708 µM; in the assay with ACHN renal, 0.663 µM; with COLO 205 colon, 0.424 µM; in the assay with HCT-116 colon, 0.38 µM; in the assay on LOX IMVI melanoma it was 0.655 µM; in the assay with NCI-H460 lung it was 0.379 µM. In addition, the results for the GI50 with OVCAR-8 ovarian and with RXF 393 renal were 1.29 µM and 0.409 µM, respectively. Also, the TGI in the assay on A549 NSCLC is above 100 µM; in the assay with ACHN renal it was above 100 µM; with COLO 205 colon it was 3.52 µM; in the assay on HCT-116 colon it was above 100 µM; in the assay on LOX IMVI melanoma, above 100 µM; in the assay on OVCAR-8 ovarian it was above 100 µM. The same compound had a TGI in the assay with RXF 393 renal above 19.9 µM.
For the compound `CN(C)CCN1C(=O)c2ccccc2N(C)c2ccccc21`, the GI50 with A549 NSCLC, in the assay with ACHN renal, with COLO 205 colon, in the assay on HCT-116 colon, in the assay with LOX IMVI melanoma and with NCI-H460 lung was above 100 µM throughout. In addition, the GI50 with OVCAR-8 ovarian and in the assay with RXF 393 renal was above 100 µM in each case. Besides, the TGI with A549 NSCLC, in the assay on ACHN renal, with COLO 205 colon, in the assay on HCT-116 colon, with LOX IMVI melanoma and in the assay with NCI-H460 lung was above 100 µM each time. For the same compound, the TGI in the assay with OVCAR-8 ovarian and in the assay with RXF 393 renal was above 100 µM each time.
As to `Cc1cc2c(cc1C)N(C(=O)CCl)CC(=O)N2`, the GI50 in the assay on A549 NSCLC is 8.23 µM; in the assay with ACHN renal, 1.82 µM; in the assay with COLO 205 colon, 2.09 µM; in the assay with HCT-116 colon, 2.53 µM; with LOX IMVI melanoma, 0.858 µM; in the assay on NCI-H460 lung, 3.66 µM. The GI50 in the assay with OVCAR-8 ovarian was 3.01 µM; in the assay with RXF 393 renal it was 2.46 µM. Moreover, the TGI with A549 NSCLC turned out to be 26.7 µM; in the assay on ACHN renal it was 3.24 µM; in the assay with COLO 205 colon, 3.68 µM; in the assay on HCT-116 colon, 9.77 µM; with LOX IMVI melanoma, 4.85 µM; in the assay on NCI-H460 lung, 14.4 µM. The TGI turned out to be 10.8 µM with OVCAR-8 ovarian and 5.68 µM in the assay on RXF 393 renal.
For the compound `CC/C=C1/C(=O)C=C[C@@H]1C/C=C\CCCC(=O)OC`, the GI50 in the assay on A549 NSCLC was 13.3 µM; with ACHN renal, 2.27 µM; with COLO 205 colon, 2.4 µM; in the assay with HCT-116 colon it was 0.447 µM; in the assay on LOX IMVI melanoma, 0.505 µM; in the assay with OVCAR-8 ovarian it was 3.72 µM. Moreover, the GI50 in the assay on RXF 393 renal is 2.03 µM. In addition, the TGI stood at 29.5 µM in the assay with A549 NSCLC; 4.57 µM with ACHN renal; 5.18 µM with COLO 205 colon; 2.4 µM with HCT-116 colon; 1.91 µM in the assay with LOX IMVI melanoma; 14.9 µM with OVCAR-8 ovarian. The TGI in the assay on RXF 393 renal worked out at 3.9 µM.
For `C=C(C)C(=O)Nc1ccc(NC(C)C)cc1`, the GI50 with A549 NSCLC, in the assay on ACHN renal, in the assay on COLO 205 colon, in the assay with HCT-116 colon, in the assay with LOX IMVI melanoma and in the assay on NCI-H460 lung was above 100 µM each time. Moreover, the GI50 with OVCAR-8 ovarian and in the assay with RXF 393 renal was above 100 µM throughout. Further, the TGI in the assay with A549 NSCLC, in the assay on ACHN renal, in the assay on COLO 205 colon, in the assay on HCT-116 colon, with LOX IMVI melanoma and with NCI-H460 lung was above 100 µM each time. Further, the TGI with OVCAR-8 ovarian and with RXF 393 renal was above 100 µM each time.
For the compound `COc1ccc2cc(C(=O)/C=C/c3ccc(Cl)cc3Cl)ccc2c1`, the GI50 was 14.1 µM in the assay with A549 NSCLC; 15.1 µM in the assay on ACHN renal; 20.3 µM with COLO 205 colon; 3.04 µM in the assay on HCT-116 colon; 70.7 µM in the assay with NCI-H460 lung; 14.8 µM in the assay on OVCAR-8 ovarian. The GI50 in the assay on RXF 393 renal was 4.52 µM. Also, the TGI is 31.9 µM in the assay on A549 NSCLC; 51.3 µM in the assay with ACHN renal; 55.7 µM with COLO 205 colon; 10.3 µM in the assay on HCT-116 colon; above 100 µM with NCI-H460 lung; 30.4 µM in the assay with OVCAR-8 ovarian. The compound also gave a TGI in the assay with RXF 393 renal of 14.5 µM.
